# Experimental data taken from patent publication US4458076A, “3-(4-Piperidinyl)-1,2-benzisothiazoles” (Hoechst-Roussel Pharmaceuticals, priority 1983, dated 1984).
# Read-outs that look alike come from different tables or passages of the source.
# Assays:
# [1] = system: apomorphine-induced climbing; assay: antipsychotic activity in the climbing mice assay (apomorphine-induced climbing); type: in vivo, CK-1 male mice; conditions: Mus musculus, ip, inhibition of climbing, compound intraperitoneally 30 minutes prior to apomorphine 1.5 mg/kg subcutaneously, readings at 10, 20 and 30 minutes, linear regression
# Method: The subject CK-1 male mice (23-27 grams) are group-housed under standard laboratory conditions. The mice are individually placed in wire mesh stick cages (4"×4" by 10") and are allowed one hour for adaptation and exploration of the new environment.
# For evaluation of climbing, 3 readings are taken at 10, 20 and 30 minutes after apomorphine administration according to the following scale: […]
# Mice consistently climbing before the injection of apormorphine will be discarded.
# With full-developed apomorphine climbing, the animals are hanging on to the cage walls, rather motionless, over longer periods of time. By contrast, climbs due to mere motor stimulation usually only last a few seconds.
# [2] = system: phenyl-p-quinone writhing; assay: analgetic activity in the phenyl-p-quinone writhing assay; type: in vivo; conditions: Mus musculus, sc; subcutaneous dose effecting an approximately 50% inhibition of writhing in mice
# Text: 3-(4-piperidinyl)-1,2-benzisothiazoles of the present invention are useful as analgetics due to their ability to alleviate pain in mammals. […] Exptl. Biol Med., 95 729 (1957)]. Thus, for instance, the subcutaneous dose effecting an approximately 50% inhibition of writhing (ED50) in mice produced in this assay is as shown in Table 2.
Compound,ED50 [1] [mg/kg],ED50 [2] [mg/kg],ED50 ([1]; read-out: ANT[…] (ED50 mg/kg)) [mg/kg]
"c1ccc(CCN2CCC(c3nsc4ccccc34)CC2)cc1 [3-{1-[Phenethyl]-4-piperidinyl}-1,2-benzisothiazole]",7,0.2,
"CCC(=O)O[C@](Cc1ccccc1)(c1ccccc1)[C@H](C)CN(C)C [propoxyphene, reference compound]",,3.9,
"O=C(CCCN1CCC(O)(c2ccc(Cl)cc2)CC1)c1ccc(F)cc1 [haloperidol, reference compound]",,,0.11
"O=c1[nH]c2ccccc2n1CCCN1CCC(c2nsc3ccccc23)CC1 [3-[1-(1,3-Dihydro-2-oxo-2H-benzimidazol-1-ylpropyl)-4-piperidinyl]-1,2-benzisothiazole]",0.32,,
"CC(C)=CCN1CCC2(C)c3cc(O)ccc3CC1C2C (centres unmarked) [pentazocine, reference compound]",,1.3,
"c1ccc2c(C3CCNCC3)nsc2c1 [3-(4-piperidinyl)-1,2-benzisothiazole]",,2.1,
"Cc1[nH]c2ccccc2c1CCCN1CCC(c2nsc3ccccc23)CC1 [3-{3-[4-(1,2-benzisothiazol-3-yl)piperidinyl]propyl}-2-methyl indole]",0.17,,
"CN1CCC(c2nsc3ccccc23)CC1 [3-(1-Methyl-4-piperidinyl)-1,2-benzisothiazole]",,0.73,
"Fc1ccc(C(CCCN2CCC(c3nsc4ccccc34)CC2)c2ccc(F)cc2)cc1 [3-{1-[4,4-bis-(4-Fluorophenyl)-1-butyl]-4-piperidinyl}-1,2-benzisothiazole]",3.3,,
"c1ccc2c(C3CCN(CC4CC4)CC3)nsc2c1 [3-{1-(cyclopropylmethyl)-4-piperidinyl}-1,2-benzisothiazole]",5.8,0.07,
"Fc1ccc2c(CCCN3CCC(c4nsc5ccccc45)CC3)noc2c1 [3-[1-(6-Fluoro-1,2-benzisoxazole-3-propyl)-4-piperidinyl]-1,2-benzisothiazole]",0.17,0.3,
